Measurements reported in patent publication US20040191311A1, “Use of methyltestosterone as a drug for treatment of human papilloma virus infections” (priority 2002, published 2004).
“Also recorded” adds a separate entry of the source.

Experiments:
[1] = tested on: condyloma acuminatum caused by HPV; assay: Clinical treatment of condyloma acuminatum patients with methyltestosterone tablets after operation, laser or freezing; format: in vivo, human; conditions: for relapse of lesions: in 6 months
Description: The study protocol using methyltestosterone as a treatment for verruca planae and condyloma acuminatum caused by HPV includes:
Some of the patients were the relapsed ones after the treatment by transferor, interferon, and interleukins.
Methyltestosterone is a tablet, manufactured by Southwest Pharmaceutical Company and the Second Pharmaceutical Company of Chengdu, China. The dosage was 5 mg/tablet.
Methyltestosterone was administered orally, 1 tablet/time, three times/day, and 5 days consecutively, followed by 1 tablet/time, two times/day, for additional 5-10 days consecutively.
One of the following would be considered as cure: A) there were no new vegetations at or around the lesion for at least six months after administration of methyltestosterone for 10-15 days following treatment with physical, chemical, and operational therapies. B) the vegetations reappeared in two months after operations and were positive for the acetowhitening test, but regressed for at least 6 months after administration of methyltestosterone for 10-15 days.

[2] = tested on: verruca planae caused by HPV; assay: Clinical treatment of verruca planae patients with methyltestosterone tablets; format: in vivo, human; conditions: for outcome at follow-up visit: 8 weeks later
[3] = of 96 cases with facial verruca planae
[4] = out of 7 cases with hand and neck verruca planae

## CC12CCC(=O)C=C1CCC1C2CCC2(C)C1CCC2(C)O (stereo not drawn) [methyltestosterone]
[1]; 61 patients, methyltestosterone 10-15 days following operations, follow-up 6 months to 1 year
  relapse of condyloma acuminatum: None of the patients relapsed; also recorded: no relapse case; also recorded: no relapses occurred
[1]; Case 11: penis, laser, then 1 tablet three times daily 5 days and twice daily 5 days
  relapse of lesions: did not relapse
[1]; Case 12: anus, CO2 laser, then 1 tablet three times daily 5 days and twice daily 10 days
  relapse of lesions: did not relapse
[1]; Case 13: vulva and anus, CO2 laser, then 1 tablet three times daily 5 days and twice daily 5 days, in 4 weeks
  new vegetations: no new vegetations appearing
[1]; Case 14: anus, CO2 laser, then 1 tablet twice daily for 10 days, in a year
  relapse: No relapse occurred
[1]; Case 15: prepuce, CO2 laser, then 1 tablet three times daily for 10 days, wound healed in 4 weeks
  outcome of wound and vegetations: no scars left nor new vegetations growing
[1]; Case 16: after the methyltestosterone treatment
  time until wound healed with negative acetowhitening test: 6 weeks
[1]; Case 16: relapsed after freezing and interferon, CO2 laser, then 1 tablet three times daily 5 days and twice daily 10 days, in one year
  relapse: no relapse occurred
[1]; all condyloma acuminatum cases
  evaluation by Chinese Ministry of Health and WHO criteria for condyloma acuminatum: all cases are considered as cure
[1]; two relapsed cases, then methyltestosterone treatment
  outcome of the two cases relapsed after operation and cytokine (interleukin II) treatment: cured; also recorded: healed the lesions
[2]; Case 1: facial verruca planae 2 years, 1 tablet twice daily for 3 days
  time to cure: 2 weeks
[2]; Case 2: facial verruca planae 1 year, 1 tablet twice daily for 3 days
  time until all lesions regressed: 4 weeks
[2]; Case 3: facial verruca planae 4 years, 1 tablet twice daily for 3 days
  time until all lesions regressed: 4 weeks
[2]; Case 4: facial verruca planae 13 years, 1 tablet twice daily for 5 days, in 6 weeks
  lesions regressed: 90%
[2]; Case 5: hand and neck verruca planae 10 years, 1 tablet twice daily for 10 days
  time until lesions on the face regressed: 2 months
[2]; Case 6: facial verruca planae 3 months, 1 tablet once daily for 5 days plus Vitamin B2, Vitamin B6 and brimstone lotion
  time to cure: 4 weeks
[2]; Case 7: facial verruca planae, 1 tablet twice daily for 5 days
  outcome at follow-up visit: cured
[2]; Case 8: facial verruca planae one year, 1 tablet once daily for 5 days
  outcome at follow-up visit: cured
[2]; Case 9: facial verruca planae relapsed after laser, 1 tablet three times daily for 5 days
  outcome of lesions: regressed mostly
[2]; Case 10: flat papules on forehead and blepharons, 1 tablet three times daily for 4 days
  time until papules regressed completely: 3 weeks
[2]; facial verruca planae, 96 cases
  non-responsive rate: 2%
[2]; facial verruca planae, 96 cases, 5 mg tablet hypoglossally, two or three times/day, 3-5 days, cure = all facial exanthems regressed
  cure rate: 88.5%
[2]; facial verruca planae, 96 cases, effective = 70% of exanthems disappeared
  effective rate: 9.4%
[2]; hand and neck verruca planae, 7 cases
  effective rate: 86%
[2]; [3]
  cases cured: 85 cases
  cases effective: 9 cases
  cases non-responsive to the medication: 2 cases
[2]; [4]
  cases cured: 1 cases
  cases regressed after 5 weeks following the treatment: 3 cases
  cases remaining non-responsive: 1 cases
